Reference: patent US20240397979A1, “METHODS FOR DELIVERING BENEFICIAL NUTRIENTS TO INVERTEBRATES THROUGH A MICROORGANISM DEFICIENT IN ANTINUTRIENTS” (APIX BIOSCIENCES, priority 2021, published 2024)

How the values were obtained:
[1] = system: adult worker honey bees (Apis mellifera) or adult worker bumble bees (Bombus terrestris); assay: Two-choice preference assay: diet with ergosterol vs diet with no sterol; type: in vivo; conditions: feed containing ergosterol vs food without it, FIG. 1
Experimental: Example 1. Preference Assay: Bees Avoid Ergosterol in Foods Method: Newly emerged adult worker honey bees (Apis mellifera) or adult worker bumble bees (Bombus terrestris) were tested in a two-choice preference assay in which bees had access to two diets and adlibitum access to water. One treatment diet contained the ergosterol and the other contained no sterol. Newly emerged bees were removed from the brood frame and cohorts of 30 bees per replicate were housed in plastic rearing cages. In all experiments, 10 cohorts of ˜30 bees each were used for each treatment group. In all diets carbohydrate was maintained at 60% using powdered sugar and fat was maintained at 8% using an emulsion. Consumption of each diet was measured every 24 h for 5 days. Preference index was calculated as (amount of treatment consumed-amount of control consumed)/(total amount of food consumed).

bee gut = assay: Passage of dietary ergosterol across the bee gut; type: in vivo; conditions: ergosterol in bee diet
adult worker honey bees = assay: Survival of bee cohorts on diets containing ergosterol; type: in vivo, Apis mellifera; conditions: bees fed diets containing ergosterol, FIG. 2
Text: Example 2: Survival: Bees are Less Likely to Survive on Diets Containing Ergosterol Method: Newly emerged adult worker honey bees fed with a diet treatment and ad libitum access to water. The treatment diet contained the ergosterol. Newly-emerged bees were removed from the brood frame and cohorts of 30 bees per replicate were housed in plastic rearing cages. In all experiments, 10 cohorts of ˜30 bees each were used for each treatment group. In all diets carbohydrate was maintained at 60% using powdered sugar and fat was maintained at 8% using an emulsion. Consumption of each diet was measured every day over the course of the experiment. The number of bees alive in the box was counted each day for 14 days.

honey bees = assay: Brood production of honey bee colonies on diets with ergosterol; type: in vivo, Apis mellifera; conditions: bee food with ergosterol vs without, FIGS. 3 and 4
Experimental: Example 3 and 4. Brood Production: Honey Bees Cannot Produce Brood on Diets with high quantities of ergosterol Method: Fully functional insulated styrofoam […] nucs comprised 5 mini frames populated with adult workers and 1 mated laying queen bee were populated with 300-400 ml of young adult workers ( N<1,000 bees of mixed ages). […] Each treatment was tested with 3-6 colonies; each colony was fed with a 60-100 g patty (solid diet) on the top feeder fitted with a mesh floor. Diet was fed on the first day and again on day 6; the quantity consumed was measured on day 6 and day 15. If no larvae or eggs/queen are observed by day 6 then the experiment is terminated. The number of capped brood cells was counted every 15 days. The number of bee seams was estimated during each inspection. Sugar syrup (34%) and water was provided in feeders inside the tent to prevent carbohydrate starvation and to stimulate foraging activity.

Nosema ceranae = assay: Nosema infection of bees fed ergosterol-containing diet; type: in vivo; conditions: diet supplemented with ergosterol, FIG. 5
Text: Method: Newly emerged adult worker honey bees (Apis mellifera) or adult worker bumble bees (Bombus terrestris) were reared in an assay to test whether diet induced an increase in Nosema ceranae infection. Bees had access to a diet composed of 15% protein, 6% fat, 78% carbohydrates and 1% vitamins and minerals and adlibitum access to water and sucrose solution. One treatment diet contained the ergosterol and the other contained no sterol. Newly emerged bees were removed from the brood frame and cohorts of 30 bees per replicate were housed in plastic rearing cages. In all experiments, 10 cohorts of ˜30 bees each were used for each treatment group. Consumption of each diet was measured every 24 h for 14 days.
Nosema ceranae infection of each cohort was produced as in Tischler et al. (2017). Briefly, Nosema spores were collected in 10 bees, concentrated and cultured. Cultures were added to 30% sucrose solutions and fed to the bees.

CC(C)[C@@H](C)/C=C/[C@@H](C)[C@H]1CC[C@H]2C3=CC=C4C[C@@H](O)CC[C@]4(C)[C@H]3CC[C@]12C [ergosterol] was tested, and the Diet preference [1] was “bees actively avoid feed containing ergosterol”, the “Crossing of the bee gut” value (bee gut) was “does not cross the bee gut” and the Lifespan (adult worker honey bees) was “shorter lifespans”. For the same compound, the Brood production (honey bees) was “less brood”, the “Nosema population in the gut” value (Nosema ceranae) was “increases the Nosema population in the gut” and the Mortality (Nosema ceranae; bees inoculated with Nosema ceranae) was “higher mortality”.
